Results as given in patent US12692241B2, “Substituted triazine compound” (Nico Therapeutics, Inc., priority 2021, dated 2026).
Counter-ions that a name gives are not always drawn.

system: IL-1β production in THP-1 cells (LPS and ATP; NLRP3 inflammasome activation); assay: THP-1 IL-1β production inhibitory test; type: cell-based, human; conditions: Homo sapiens, THP-1, 2 h, PMA-differentiated THP-1 cells, LPS 50 ng/mL and ATP 5 mM, 2 hours, ELISA; read-out: IC50 (nM), IL-1β production
Protocol: THP-1 IL-1β Production Inhibitory Test
To THP-1 cells, 50 ng/mL PMA (phorbol myristate acetate, SIGMA, P1585) was added at 37° C. and then the cells were cultured for 2 days. […] The cells were cultured at 37° C. for 15 minutes. LPS (lipopolysaccharide, SIMGA, L2880) and ATP (adenosine triphosphate, SIGMA, A2383) were added such that the final concentrations of them became 50 ng/mL and 5 mM, respectively. The cells were cultured at 37° C. for 2 hours. The supernatant was collected and the concentration of IL-1β was measured by ELISA (DuoSet ELISA human IL-1β, R&D Systems, DY201). The concentration of IL-1β was plotted against the logarithm of the concentration of the test compound, and the IC50 value was calculated by sigmoidal Emax model nonlinear regression analysis.

Row | Compound | IC50
1 | O=C1NCC[C@@H]1Nc1nnc(-c2ccc(Cl)cc2O)c(C2CC2)n1 [Example 125] | 33 nM
2 | O=C1NCC[C@@H]1Nc1nnc(-c2ccc(OC(F)(F)F)cc2O)c(C2CC2)n1 [Example 126] | 20 nM
3 | O=C1NCC[C@@H]1Nc1nnc(-c2ccc(C(F)(F)F)cc2O)c(C2CC2)n1 [Example 127] | 10 nM
4 | CC(C)c1nc(N[C@@H]2CCCC[C@H]2O)nnc1-c1ccc(C(F)(F)F)cc1O [Example 128] | 7.9 nM
5 | CC(C)c1nc(NC[C@@H](C)O)nnc1-c1ccc(C(F)(F)F)cc1O [Example 129] | 55 nM
6 | C[C@@H](O)CNc1nnc(-c2ccc(C(F)(F)F)cc2O)c(C(F)(F)F)n1 [Example 130] | 260 nM
7 | Cc1nc(N[C@@H]2CCNC2)nnc1-c1ccc(C(F)(F)F)cc1O [Example 133] | 95 nM
8 | Cc1nc(NC[C@@H]2CCCN2)nnc1-c1ccc(C(F)(F)F)cc1O [Example 134] | 38 nM
9 | Cc1nc(NC[C@@H]2CCCNC2)nnc1-c1ccc(C(F)(F)F)cc1O [Example 135] | 450 nM
10 | Cc1nc(NC[C@H](C)CCN)nnc1-c1ccc(C(F)(F)F)cc1O [Example 136] | 61 nM
11 | Cc1nc(N[C@H]2CCCNC2)nnc1-c1ccc(C(F)(F)F)cc1O [Example 137] | 1500 nM
12 | Cc1nc(N[C@@H]2CCCNC2)nnc1-c1ccc(C(F)(F)F)cc1O [Example 138] | 5.6 nM
13 | Cc1nc(NCCC2(CN)CCC2)nnc1-c1ccc(C(F)(F)F)cc1O [Example 139] | 690 nM
14 | Cc1n[nH]cc1Nc1nnc(-c2ccc(C(F)(F)F)cc2O)c(C)n1 [Example 140] | 160 nM
15 | Cc1nc(NC[C@H]2COCCN2)nnc1-c1ccc(C(F)(F)F)cc1O [Example 142] | 340 nM
16 | Cc1nc(NC[C@H]2C[C@H](N)C2)nnc1-c1ccc(C(F)(F)F)cc1O [Example 143] | 220 nM
17 | Cc1nc(NC[C@H]2C[C@@H](N)C2)nnc1-c1ccc(C(F)(F)F)cc1O [Example 144] | 160 nM
18 | Cc1nc(N[C@@H]2CCCC[C@H]2N)nnc1-c1ccc(OC(F)(F)F)cc1O [Example 145] | 39 nM
19 | Cc1nc(N[C@@H]2CCCC[C@H]2N)nnc1-c1ccc(Cl)cc1O [Example 146] | 12 nM
20 | Cc1ccc(-c2nnc(N[C@@H]3CCCC[C@H]3N)nc2C)c(O)c1 [Example 147] | 28 nM
21 | Cc1nc(Nc2cn[nH]c2)nnc1-c1ccc(C(F)(F)F)cc1O [Example 149, 2-{5-methyl-3-[(1H-pyrazol-4-yl)amino]-1,2,4-triazin-6-yl}-5-(trifluoromethyl)phenol] | 23 nM
22 | Cc1nc(Nc2cc[nH]n2)nnc1-c1ccc(C(F)(F)F)cc1O [Example 150] | 6.8 nM
23 | CC(=O)N1CCC[C@H]1CNc1nnc(-c2ccc(C(F)(F)F)cc2O)c(C)n1 [Example 151, 1-((2S)-2-[({6-[2-hydroxy-4-(trifluoromethyl)phenyl]-5-methyl-1,2,4-triazin-3-yl}amino)methyl]pyrrolidin-1-yl)ethan-1-one] | 35 nM
24 | CC(=O)N[C@@H]1CCCC[C@H]1Nc1nnc(-c2ccc(C(F)(F)F)cc2O)c(C)n1 [Example 152, N-[(1R,2R)-2-({6-[2-hydroxy-4-(trifluoromethyl)phenyl]-5-methyl-1,2,4-triazin-3-yl}amino)cyclohexyl]acetamide] | 22 nM
25 | CC(=O)N1CCC[C@@H](CNc2nnc(-c3ccc(C(F)(F)F)cc3O)c(C)n2)C1 [Example 153] | 7.8 nM
26 | CC(=O)N1CCC[C@@H](Nc2nnc(-c3ccc(C(F)(F)F)cc3O)c(C)n2)C1 [Example 154] | 31 nM
27 | CC(=O)N1CCO[C@@H](CNc2nnc(-c3ccc(C(F)(F)F)cc3O)c(C)n2)C1 [Example 155] | 370 nM

Row | Compound | IC50
28 | CC(=O)N[C@H]1C[C@H](CNc2nnc(-c3ccc(C(F)(F)F)cc3O)c(C)n2)C1 [Example 156] | 23 nM
29 | CC(=O)N[C@H]1C[C@@H](CNc2nnc(-c3ccc(C(F)(F)F)cc3O)c(C)n2)C1 [Example 157] | 5.7 nM
30 | CC(=O)N1CCOC[C@@H]1CNc1nnc(-c2ccc(C(F)(F)F)cc2O)c(C)n1 [Example 158] | 850 nM
31 | CC(=O)N1CC[C@@H](Nc2nnc(-c3ccc(C(F)(F)F)cc3O)c(C)n2)[C@H](O)C1 [Example 159, 1-[(3R,4R)-3-hydroxy-4-({6-[2-hydroxy-4-(trifluoromethyl)phenyl]-5-methyl-1,2,4-triazin-3-yl}amino)piperidin-1-yl]ethan-1-one] | 120 nM
32 | Cc1nc(N[C@@H]2CN(S(C)(=O)=O)C[C@H]2O)nnc1-c1ccc(C(F)(F)F)cc1O [Example 160, (3R,4R)-4-({6-[2-hydroxy-4-(trifluoromethyl)phenyl]-5-methyl-1,2,4-triazin-3-yl}amino)-1-(methanesulfonyl)pyrrolidin-3-ol] | 210 nM
33 | Cc1nc(N[C@@H]2CCN(CCO)C2)nnc1-c1ccc(C(F)(F)F)cc1O [Example 161, 2-(3-{[(3R)-1-(2-hydroxyethyl)pyrrolidin-3-yl]amino}-5-methyl-1,2,4-triazin-6-yl)-5-(trifluoromethyl)phenol] | 70 nM
34 | Cc1nc(N[C@@H]2CN(C)C[C@H]2O)nnc1-c1ccc(C(F)(F)F)cc1O [Example 162] | 350 nM
35 | CC(=O)N1C[C@@H](O)[C@H](Nc2nnc(-c3ccc(C(F)(F)F)cc3O)c(C)n2)C1 [Example 163, 1-[(3R,4R)-3-hydroxy-4-({6-[2-hydroxy-4-(trifluoromethyl)phenyl]-5-methyl-1,2,4-triazin-3-yl}amino)pyrrolidin-1-yl]ethan-1-one] | 640 nM
36 | Cc1cc(C(F)(F)F)cc(O)c1-c1nnc(N[C@@H]2CCCC[C@H]2O)nc1C [Example 165] | 6.7 nM
37 | Cc1nc(N[C@@H]2CCC[C@@H](O)C2)nnc1-c1ccc(C(F)(F)F)cc1O [Example 166] | 23 nM
38 | Cc1nc(N[C@H]2CCC[C@@H](O)C2)nnc1-c1ccc(C(F)(F)F)cc1O [Example 167] | 580 nM
39 | COc1ccc(-c2nnc(N[C@@H]3CCC[C@H](O)C3)nc2C)c(O)c1 [Example 168] | 26 nM
40 | Cc1nc(N[C@@H]2CCCC[C@H]2O)nnc1-c1cc(F)c(C(F)(F)F)cc1O [Example 169] | 38 nM
41 | Cc1nc(NC2CNCCC23CC3)nnc1-c1ccc(C(F)(F)F)cc1O (stereo not shown) [Example 170] | 390 nM
42 | Cc1nc(NCC2(N)CCOCC2)nnc1-c1ccc(C(F)(F)F)cc1O [Example 171] | 240 nM
43 | Cc1nc(N[C@@H]2CCCN(C3CNC3)C2)nnc1-c1ccc(C(F)(F)F)cc1O [Example 172] | 35 nM
44 | Cc1nc(NC2CCC(C(N)=O)NC2)nnc1-c1ccc(C(F)(F)F)cc1O (stereo not shown) [Example 173] | 58 nM
45 | Cc1nc(N[C@@H]2CCC[C@H](O)C2)nnc1-c1ccc(C(F)F)cc1O [Example 175] | 24 nM
46 | Cc1nc(N[C@@H]2CCC[C@H](O)C2)nnc1-c1cc(F)c(C(F)(F)F)cc1O [Example 176] | 43 nM
47 | Cc1nc(N[C@@H]2CCCC[C@H]2N(C)C)nnc1-c1ccc(C(F)(F)F)cc1O [Example 177] | 48 nM
48 | Cc1nc(N[C@@H]2CCCN(CC3CC3)C2)nnc1-c1ccc(C(F)(F)F)cc1O [Example 178] | 4.2 nM
49 | Cc1nc(N[C@@H]2CCCN(C3COC3)C2)nnc1-c1ccc(C(F)(F)F)cc1O [Example 179] | 19 nM
50 | Cc1nc(N[C@H]2CN(C)CCC2(F)F)nnc1-c1ccc(C(F)(F)F)cc1O [Example 180] | 180 nM
51 | Cc1nc(N[C@@H]2CCCN(CCC#N)C2)nnc1-c1ccc(C(F)(F)F)cc1O [Example 181, 3-[(3R)-3-({6-[2-hydroxy-4-(trifluoromethyl)phenyl]-5-methyl-1,2,4-triazin-3-yl}amino)piperidin-1-yl]propanenitrile] | 12 nM
52 | Cc1nc(N[C@@H]2CC[C@H](C(=O)O)C2)nnc1-c1ccc(C(F)(F)F)cc1O [Example 182, (1S,3R)-3-({6-[2-hydroxy-4-(trifluoromethyl)phenyl]-5-methyl-1,2,4-triazin-3-yl}amino)cyclopentane-1-carboxylic acid] | 67 nM
53 | Cc1nc(N[C@@H]2CCCN(CC(=O)O)C2)nnc1-c1ccc(C(F)(F)F)cc1O [Example 183] | 150 nM
54 | Cc1nc(N[C@@H]2CCCN(C)C2)nnc1-c1ccc(C(F)(F)F)cc1O [Example 187, 2-(5-methyl-3-{[(3R)-1-methylpiperidin-3-yl]amino}-1,2,4-triazin-6-yl)-5-(trifluoromethyl)phenol dihydrochloride] | 1.3 nM

same assay, conditions: Homo sapiens, THP-1, 2 h, read-out: IC50 (nM), IL-1β production

Row | Compound | IC50
55 | Cc1nc(NC[C@@H](C)N)nnc1-c1ccc(C(F)(F)F)cc1O [Example 148, 2-(3-{[(2R)-2-aminopropyl]amino}-5-methyl-1,2,4-triazin-6-yl)-5-(trifluoromethyl)phenol monohydrochloride] | 150 nM
56 | COc1ccc(-c2nnc(N[C@@H]3CCCC[C@H]3O)nc2C)c(O)c1 [Example 184, 2-(3-{[(1R,2R)-2-hydroxycyclohexyl]amino}-5-methyl-1,2,4-triazin-6-yl)-5-methoxyphenol monohydrochloride] | 5.8 nM
57 | Cc1nc(N[C@@H]2CCC[C@H](O)C2)nnc1-c1ccc(C(F)(F)F)cc1O [Example 185, 2-(3-{[(1R,3S)-3-hydroxycyclohexyl]amino}-5-methyl-1,2,4-triazin-6-yl)-5-(trifluoromethyl)phenol monohydrochloride] | 5.2 nM
58 | Cc1nc(N[C@@H]2CCCC[C@H]2O)nnc1-c1ccc(OC(F)F)cc1O [Example 186, 5-(difluoromethoxy)-2-(3-{[(1R,2R)-2-hydroxycyclohexyl]amino}-5-methyl-1,2,4-triazin-6-yl)phenol monohydrochloride] | 11 nM
